Measured values published in publication PMC4154846, “Functional Characterization of Chemosensory Proteins in the Scarab Beetle, Holotrichia oblita Faldermann (Coleoptera: Scarabaeida)” (PLoS ONE, 2014).
Several values for one entry are separate records, joined by “and”; a condition that tells them apart may be missing. Identical values can stand only once. Entries after “also recorded” stand apart in the source; their conditions may differ. Like-named read-outs stand apart in the source and are kept apart here.

Experiments:
HoblCSP2 [1] = target: T1, HoblCSP2 (Holotrichia oblita, UniProt G9BWQ6); assay: Fluorescence binding of 1-NPN to HoblCSP2 (binding curve, Scatchard plot); conditions: 2 µM protein; 1-NPN 2∼24 µM; read-out: dissociation constant of CSP2/1-NPN
T1 sequence (G9BWQ6 entry or part of it): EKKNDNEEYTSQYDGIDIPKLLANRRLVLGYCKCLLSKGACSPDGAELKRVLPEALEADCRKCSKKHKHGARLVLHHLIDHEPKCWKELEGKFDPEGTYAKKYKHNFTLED
Experimental: (§1) Fluorescence binding assay was based on method previously described by Yin et al.. Briefly, fifty compounds (Sigma-Aldrich, Germany) with chemical purities ≥97% were tested in a Lengguang 970 CRT spectrofluorimeter (Shanghai Jingmi, China). Assuming the proteins were 100% active, the binding affinities for N-phenyl-1-naphthylamine (1-NPN) were determined by adding aliquots of 1-NPN into a 2 µM protein solution for final concentrations of 2∼24 µM. The dissociation constants of the binding competitors were calculated from IC50 according to Campanacci et al: Ki = [IC50]/(1+[1-NPN]/K(1-NPN)), where [1-NPN] represents the concentration of unbound 1-NPN and K(1-NPN) is the dissociation constant of 1-NPN [46]. Binding data for each ligand was collected from 3 measurements.
(§2) Figure 3 Fluorescence competition assay of the recombinant HoblCSP1 and HoblCSP2. (A) Binding curves of 1-NPN with HoblCSP1 and HoblCSP2 and their relative Scatchard plots. The dissociation constant of HoblCSP1 is 2.53 µM and that of HoblCSP2 is 2.93 µM. (B) Representative competitive binding curves of the recombinant HoblCSP1 to a series selected ligands (see Table 1). […] Fluorescence intensities are plotted as percent of the initial fluorescence in the absence of ligands. […]

HoblCSP1 [2] = target: T2, HoblCSP1 (Holotrichia oblita, UniProt G9BWI4); assay: Fluorescence binding of 1-NPN to HoblCSP1 (binding curve, Scatchard plot); conditions: 2 µM protein; 1-NPN 2∼24 µM; read-out: dissociation constant of CSP1/1-NPN
T2 sequence (G9BWI4 entry or part of it): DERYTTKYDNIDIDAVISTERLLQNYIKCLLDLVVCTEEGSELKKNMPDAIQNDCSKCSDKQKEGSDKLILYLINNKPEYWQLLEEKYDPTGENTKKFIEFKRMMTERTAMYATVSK
Experimental: as §1, §2

HoblCSP1 [3] = target: T2, HoblCSP1; assay: Fluorescence competition assay with 1-NPN, recombinant HoblCSP1; type: binding; conditions: for binding affinity to HoblCSP1, in words: competition assay
Experimental: (§3) Fluorescence binding assay was based on method previously described by Yin et al.. Briefly, fifty compounds (Sigma-Aldrich, Germany) with chemical purities ≥97% were tested in a Lengguang 970 CRT spectrofluorimeter (Shanghai Jingmi, China). […] Binding data for each ligand was collected from 3 measurements.
(§4) Figure 3 Fluorescence competition assay of the recombinant HoblCSP1 and HoblCSP2. (A) Binding curves of 1-NPN with HoblCSP1 and HoblCSP2 and their relative Scatchard plots. […] (B) Representative competitive binding curves of the recombinant HoblCSP1 to a series selected ligands (see Table 1). All proteins used were diluted to a fixed concentration of 2 µM, while the concentration of 1-NPN varied with the respective dissociation constant of HoblCSPs/1-NPN. […] Fluorescence intensities are plotted as percent of the initial fluorescence in the absence of ligands. The molecular formulas of representative ligands are shown here as well.

HoblCSP2 [4] = target: T1, HoblCSP2; assay: Fluorescence competition assay with 1-NPN, recombinant HoblCSP2; type: binding; conditions: for binding affinity to HoblCSP2, in words: competition assay
Experimental: as §3, §4

H.oblita antennae = system: H.oblita antennae; parameters: method as in PMID 21852709; conditions: cited from earlier work
H.oblita = system: H.oblita; parameters: method as in earlier work; conditions: cited from earlier work
AgamCSP3 = system: AgamCSP3; parameters: method as in PMID 23599217; conditions: cited from earlier work
[5] = competition with 1-NPN, 2 µM protein, ligand 0–28 µM, Ki calculated from IC50, 3 measurements, read-out: HoblCSP1 Ki
[6] = competition with 1-NPN, 2 µM protein, ligand 0–28 µM, Ki calculated from IC50, 3 measurements, read-out: HoblCSP2 Ki

Ki (HoblCSP1 [3]; [5]) | Structure (SMILES) | binding affinity to HoblCSP2, in words (HoblCSP2 [4]) | binding affinity to HoblCSP1, in words (HoblCSP1 [3]) | Ki (HoblCSP1 [3]) | further results
– | c1ccc(Nc2cccc3ccccc23)cc1 [1-NPN, N-phenyl-1-naphthylamine] | – | – | – | Kd (HoblCSP2 [1]): 2.93 µM; Kd (HoblCSP1 [2]): 2.53 µM
48.1 µM | C=CC(O)CCCCC (centres unmarked) [1-Octen-3-ol] | – | – | – | –
35.9 µM | CCCCCCCCO [1-octanol] | – | – | – | Ki (HoblCSP2 [4]; [6]): 40.6 µM
29.9 µM | CCCCC(CC)CO (centres unmarked) [2-Ethy1-1-Hexanol] | – | – | – | Ki (HoblCSP2 [4]; [6]): 32.1 µM
34.6 µM | CC(C)(C)C1CCC(O)CC1 (centres unmarked) [4-tert-butylcyclohexanol] | – | – | – | Ki (HoblCSP2 [4]; [6]): 50.7 µM
– | CC(=O)CCC=C(C)C [6-Methyl-5-hepten-2-one] | higher affinities | – | – | Ki (HoblCSP2 [4]): 56.9 µM
43.5 µM | CCOC(=O)CN [Glycine ethyl ester] | limited affinities | limited affinities | – | Ki (HoblCSP2 [4]; [6]): 39.5 µM
– | CC[C@H](C)[C@H](N)C(=O)OC [L-Isoleucine methyl este] | limited affinities | limited affinities | – | –
57 µM | COC(=O)[C@@H]1CCCN1 [L-Proline methyl ester] | limited affinities | limited affinities | – | –
28.4 µM | COc1ccccc1 [anisole] | – | – | – | Ki (HoblCSP2 [4]; [6]): 29.5 µM
– | O=Cc1ccccc1 [benzaldehyde] | medium affinities | medium affinities | 23.3 µM | Ki (HoblCSP2 [4]): 19.5 µM
– | OCc1ccccc1 [benzyl alcohol] | – | – | 34.9 µM | Ki (HoblCSP2 [4]): 54.8 µM
– | O=C/C=C/c1ccccc1 [cinnamaldehyde] | highest affinities | highest affinities | 20.5 µM | electrophysiological response in H.oblita antennae (EAG) (H.oblita antennae): strong electrophysiological responses; attraction to H.oblita (H.oblita): great attraction; Ki (HoblCSP2 [4]): 17.5 µM
– | CC/C=C\CCO [cis-3-hexen-1-ol] | higher affinities | – | – | Ki (HoblCSP1 [3]; read-out: HoblCSP1 Ki, competition with 1-NPN, 2 µM protein, ligand 0–28 µM, Ki calculated from IC50, 3 measurements): 46.9 µM; Ki (HoblCSP2 [4]; read-out: HoblCSP2 Ki, competition with 1-NPN, 2 µM protein, ligand 0–28 µM, Ki calculated from IC50, 3 measurements): 47.8 µM and 35.7 µM
– | CC(C)=CCC[C@@H](C)CC=O [citronellal] | – | – | – | best ligands for AgamCSP3 (AgamCSP3): best ligands
– | C=CCc1ccc(O)c(OC)c1 [eugenol] | – | higher affinities | 30 µM | –
– | CC(C)=CCC/C(C)=C/CO [geraniol] | medium affinities | medium affinities | 29.5 µM | Ki (HoblCSP2 [4]): 30.2 µM
57.6 µM | CCCCCCO [hexanol] | – | – | – | Ki (HoblCSP2 [4]; [6]): 60.5 µM
– | COC(=O)c1ccccc1O [methyl salicylate] | – | higher affinities | 47.3 µM | –
25.4 µM | C=CC(=C)CCC=C(C)C [myrcene] | medium affinities | medium affinities | – | Ki (HoblCSP2 [4]; [6]): 29.5 µM
– | CCCCCCCCC=O [nonanal] | – | – | – | best ligands for AgamCSP3 (AgamCSP3): best ligands
– | CC1=C(/C=C/C(C)=C/C=C/C(C)=C/C=O)C(C)(C)CCC1 [retinal] | – | – | – | best ligands for AgamCSP3 (AgamCSP3): best ligands
– | CCC/C=C/C=O [trans-2-hexenal] | medium affinities | medium affinities | 24.9 µM | Ki (HoblCSP2 [4]): 25.7 µM
– | CC(=O)/C=C/C1C(C)=CCCC1(C)C (stereo not drawn) [α-ionone] | highest affinities | highest affinities | 10.5 µM | electrophysiological response in H.oblita antennae (EAG) (H.oblita antennae): strong electrophysiological responses; Ki (HoblCSP2 [4]): 11.5 µM
– | CC(=O)/C=C/C1=C(C)CCCC1(C)C [β-ionone] | bound most strongly; also recorded: highest affinities | bound most strongly; also recorded: highest affinities; also recorded: best ligand | 4.3 µM | Ki (HoblCSP2 [4]): 4.47 µM

Structure (SMILES) | Ki (HoblCSP1 [3]; [5]) | binding affinity to HoblCSP2, in words (HoblCSP2 [4]) | binding affinity to HoblCSP1, in words (HoblCSP1 [3]) | Ki (HoblCSP1 [3]) | further results
C=C1C2CCC(C2)C1(C)C (centres unmarked) [camphene] | 37.9 µM | could not bind camphene at all | able to bind camphene, albeit with a high Ki value | – | –
COC(=O)c1ccccc1C(=O)OC [dimererhyl phthalate] | 22.3 µM | – | higher affinities | – | –
CC1=CC[C@@H](C(C)(C)O)CC1 [α -terpineol] | 46.8 µM | – | – | – | Ki (HoblCSP2 [4]; [6]): 39.4 µM
